Target: T1, FldH (Fusobacterium nucleatum, UniProt Q8RI14)
T1 construct: gene FN1822; full-length, 169 residues, N-terminal His6 tag (pET15b) cut with thrombin; expressed in E. coli BL21(DE3)pLysS; monomer
Assay: X-ray crystal structure, […] A
Type: binding
Conditions: heme-bound protein; FMN copurified

T1 sequence (Q8RI14 entry or part of it): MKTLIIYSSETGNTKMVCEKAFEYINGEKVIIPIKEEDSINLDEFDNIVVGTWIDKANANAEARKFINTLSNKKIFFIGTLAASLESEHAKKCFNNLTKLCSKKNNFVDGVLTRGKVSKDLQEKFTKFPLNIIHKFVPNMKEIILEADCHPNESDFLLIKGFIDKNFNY

Cc1cc2nc3c(=O)[nH]c(=O)nc-3n(C[C@H](O)[C@H](O)[C@H](O)COP(=O)(O)O)c2cc1C [FMN]
X-ray crystal structure, 1.6 A: The FMN cofactor is situated at the carboxyl-terminal end of the β-parallel sheet

— article PMC10404700, “A new member of the flavodoxin superfamily from Fusobacterium nucleatum that functions in heme trafficking and reduction of anaerobilin” (The Journal of Biological Chemistry, 2023)
